Reference: patent US20220402882A1, “HERBICIDAL COMPOUNDS” (SYNGENTA CROP PROTECTION AG, priority 2019, published 2022)

Key:
Setaria faberi (SETFA) [1] = test: Post-emergence glasshouse herbicide test; type: in vivo; conditions: 125 g/h, evaluated after 13 days
Summary of the method: (§1)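 Plants grown in standard soil in pots in a glasshouse (24/16 °C day/night, 14 h light, 65% humidity) were sprayed 1 day after sowing (pre-emergence) or after 8 days (post-emergence) at 125 g/h unless otherwise indicated. Percentage damage was assessed after 13 days and scored on a five-point scale (5=80-100%, 1=0-19%).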

[2] = tested on: Amaranthus retoflexus (AMARE); test: Post-emergence glasshouse herbicide test; type: in vivo; conditions: 125 g/h, evaluated after 13 days
Summary of the method: as §1

[3] = tested on: Echinochloa crus-galli (ECHCG); test: Post-emergence glasshouse herbicide test; type: in vivo; conditions: 125 g/h, evaluated after 13 days
Summary of the method: as §1

[4] = tested on: Abutilon theophrasti (ABUTH); test: Post-emergence glasshouse herbicide test; type: in vivo; conditions: 125 g/h, evaluated after 13 days
Summary of the method: as §1

[5] = tested on: Ipomoea hederacea (IPOHE); test: Post-emergence glasshouse herbicide test; type: in vivo; conditions: 125 g/h, evaluated after 13 days
Summary of the method: as §1

Setaria faberi (SETFA) [6] = test: Pre-emergence glasshouse herbicide test; type: in vivo; conditions: 125 g/h, evaluated after 13 days
Summary of the method: as §1

[7] = tested on: Amaranthus retoflexus (AMARE); test: Pre-emergence glasshouse herbicide test; type: in vivo; conditions: 125 g/h, evaluated after 13 days
Summary of the method: as §1

[8] = tested on: Echinochloa crus-galli (ECHCG); test: Pre-emergence glasshouse herbicide test; type: in vivo; conditions: 125 g/h, evaluated after 13 days
Summary of the method: as §1

[9] = tested on: Abutilon theophrasti (ABUTH); test: Pre-emergence glasshouse herbicide test; type: in vivo; conditions: 125 g/h, evaluated after 13 days
Summary of the method: as §1

[10] = tested on: Ipomoea hederacea (IPOHE); test: Pre-emergence glasshouse herbicide test; type: in vivo; conditions: 125 g/h, evaluated after 13 days
Summary of the method: as §1

ZEAMX/maize = test: Comparative experiment, POST application; type: in vivo; conditions: crop
Method: (§2) A comparative experiment is conducted to show the advantage provided by the compounds of the present invention. Thus the biological performance of representative compounds […] Compound 4-460 of the type referred to in WO2012/028579. Results are given as (%) phytotoxicity observed.

DIGSA = test: Comparative experiment, POST application; type: in vivo
Method: as §2

ECHCG = test: Comparative experiment, POST application; type: in vivo, Echinochloa crus-galli
Method: as §2

SETFA = test: Comparative experiment, POST application; type: in vivo, Setaria faberi
Method: as §2

AMARE = test: Comparative experiment, POST application; type: in vivo, Amaranthus retoflexus
Method: as §2

ABUTH = test: Comparative experiment, POST application; type: in vivo, Abutilon theophrasti
Method: as §2

IPOHE = test: Comparative experiment, POST application; type: in vivo, Ipomoea hederacea
Method: as §2

Structure (SMILES) | percentage damage caused to the plant, SETFA (Setaria faberi (SETFA) [1]) | percentage damage caused to the plant, AMARE [2] | percentage damage caused to the plant, ECHCG [3] | percentage damage caused to the plant, ABUTH [4] | percentage damage caused to the plant, IPOHE [5] | percentage damage caused to the plant, SETFA (Setaria faberi (SETFA) [6]) | percentage damage caused to the plant, AMARE [7] | percentage damage caused to the plant, ECHCG [8] | percentage damage caused to the plant, ABUTH [9] | percentage damage caused to the plant, IPOHE [10] | also measured
Cn1nnnc1NC(=O)c1ccc(OC(F)F)c(S(C)(=O)=O)c1Cl [Compound 1.003, 2-chloro-4-(difluoromethoxy)-3-methylsulfonyl-N-(1-methyltetrazol-5-yl)benzamide] | 5 (5=80-100%) | 5 (5=80-100%) | 5 (5=80-100%) | 5 (5=80-100%) | 5 (5=80-100%) | 5 (5=80-100%) | 5 (5=80-100%) | 5 (5=80-100%) | 5 (5=80-100%) | 1 (1=0-19%) | (%) phytotoxicity observed, ZEAMX (ZEAMX/maize; rate 15 g/ha): 0%; (%) phytotoxicity observed, ZEAMX (ZEAMX/maize; rate 30 g/ha): 0%; (%) phytotoxicity observed, DIGSA (DIGSA; rate 15 g/ha): 80%; (%) phytotoxicity observed, DIGSA (DIGSA; rate 30 g/ha): 80%; (%) phytotoxicity observed, ECHCG (ECHCG; rate 15 g/ha): 90%; (%) phytotoxicity observed, ECHCG (ECHCG; rate 30 g/ha): 90%; (%) phytotoxicity observed, SETFA (SETFA; rate 15 g/ha): 80%; (%) phytotoxicity observed, SETFA (SETFA; rate 30 g/ha): 90%; (%) phytotoxicity observed, AMARE (AMARE; rate 15 g/ha): 100%; (%) phytotoxicity observed, AMARE (AMARE; rate 30 g/ha): 100%; (%) phytotoxicity observed, ABUTH (ABUTH; rate 15 g/ha): 90%; (%) phytotoxicity observed, ABUTH (ABUTH; rate 30 g/ha): 100%; (%) phytotoxicity observed, IPOHE (IPOHE; rate 15 g/ha): 100%; (%) phytotoxicity observed, IPOHE (IPOHE; rate 30 g/ha): 100%
Cn1nnnc1NC(=O)c1ccc(C(F)(F)F)c(S(C)(=O)=O)c1Cl [Compound 4-640, reference compound] |  |  |  |  |  |  |  |  |  |  | (%) phytotoxicity observed, ZEAMX (ZEAMX/maize; rate 15 g/ha): 40%; (%) phytotoxicity observed, ZEAMX (ZEAMX/maize; rate 30 g/ha): 70%; (%) phytotoxicity observed, DIGSA (DIGSA; rate 15 g/ha): 80%; (%) phytotoxicity observed, DIGSA (DIGSA; rate 30 g/ha): 80%; (%) phytotoxicity observed, ECHCG (ECHCG; rate 15 g/ha): 80%; (%) phytotoxicity observed, ECHCG (ECHCG; rate 30 g/ha): 90%; (%) phytotoxicity observed, SETFA (SETFA; rate 15 g/ha): 90%; (%) phytotoxicity observed, SETFA (SETFA; rate 30 g/ha): 90%; (%) phytotoxicity observed, AMARE (AMARE; rate 15 g/ha): 90%; (%) phytotoxicity observed, AMARE (AMARE; rate 30 g/ha): 90%; (%) phytotoxicity observed, ABUTH (ABUTH; rate 15 g/ha): 90%; (%) phytotoxicity observed, ABUTH (ABUTH; rate 30 g/ha): 90%; (%) phytotoxicity observed, IPOHE (IPOHE; rate 15 g/ha): 90%; (%) phytotoxicity observed, IPOHE (IPOHE; rate 30 g/ha): 90%
CC[S+]([O-])c1c(CC(F)(F)F)ccc(C(=O)Nc2nnnn2C)c1Cl (stereo not shown) [Compound 1.020] | 5 (5=80-100%) | 5 (5=80-100%) | 5 (5=80-100%) | 5 (5=80-100%) | 5 (5=80-100%) | 5 (5=80-100%) | 5 (5=80-100%) | 5 (5=80-100%) | 5 (5=80-100%) | 5 (5=80-100%) | 
CCS(=O)(=O)c1cc(C(=O)Nc2nnnn2C)ccc1OC(F)F [Compound 1.025] | 5 (5=80-100%) | 5 (5=80-100%) | 5 (5=80-100%) | 5 (5=80-100%) | 5 (5=80-100%) | 5 (5=80-100%) | 5 (5=80-100%) | 5 (5=80-100%) | 5 (5=80-100%) | 4 (4=60-79%) | 
CCCSc1c(OC(F)F)ccc(C(=O)Nc2nnnn2CC)c1Cl [Compound 1.067] | 4 (4=60-79%) | 5 (5=80-100%) | 4 (4=60-79%) | 5 (5=80-100%) | 4 (4=60-79%) | 4 (4=60-79%) | 5 (5=80-100%) | 5 (5=80-100%) | 4 (4=60-79%) | 2 (2=20-39%) | 
CCn1nnnc1NC(=O)c1ccc(OC(F)F)c(S(=O)(=O)CC(C)C)c1Cl [Compound 1.053] | 5 (5=80-100%) | 5 (5=80-100%) | 5 (5=80-100%) | 5 (5=80-100%) | 5 (5=80-100%) | 5 (5=80-100%) | 5 (5=80-100%) | 5 (5=80-100%) | 5 (5=80-100%) | 4 (4=60-79%) | 
CCSc1c(OC(F)(F)F)ccc(C(=O)Nc2nnc(C)o2)c1Cl [Compound 2.010] | 5 (5=80-100%) | 5 (5=80-100%) | 5 (5=80-100%) | 5 (5=80-100%) | 4 (4=60-79%) | 5 (5=80-100%) | 5 (5=80-100%) | 5 (5=80-100%) | 4 (4=60-79%) | 1 (1=0-19%) | 
